Measured values: US8058442B2 (Technion Research and Development Foundation Ltd., priority 2002, dated 2011)
Where two headings read alike, the source gives them in different places.

How the values were obtained:
[1] = Iron chelation in solution: fluorescence dequenching of iron-quenched calcein; settings: Fe-CAL in HBS pH 7.4, room temperature, 1 h incubation, read-out: half maximal dequenching level
Procedure: Iron binding was determined by the chelator capacity for restoring the fluorescence of iron-quenched calcein (CAL), a dynamic fluorescent metallosensor. The iron-scavenging properties of the chelators were assessed in solution, by mixing iron salts with free CAL.
Iron precomplexed calcein (Fe-CAL) solutions of 1 μm (in Hepes 20 mM buffered saline, pH 7.4=HBS) were incubated in the presence of the indicated concentrations of different chelators at room temperature and the fluorescence intensity (475 nm->520 nm) followed with time in a Tecan fluorescence plate reader, using 96-well culture plates (Nunc) at 100 μl final volume. The time-dependent complexation of iron from Fe-CAL by the chelators was followed by fluorescence dequenching. The fluorescence intensity attained after 1 h incubation is shown as a function of the chelator concentration.
The corresponding half maximal dequenching level for the corresponding chelator was (in μM) (rank order from the fastest acting to the slowest): […]

[2] = test system: human erythroleukemia K562 cells; test: Iron permeation of the chelators into calcein-loaded K562 cells; format: cell-based; settings: 5 μM chelator, 37° C.
Procedure: The iron-scavenging properties of the chelators were assessed in human erythroleukemia K562 cells, by loading with the permeant CAL-AM probe, in situ formation of free CAL, and binding of cytosolic labile iron. Calcein-AM readily passes through the cell membrane of viable cells because of the enhanced hydrophobicity as compared to Calcein. When Calcein-AM permeates into the cytoplasm, it is hydrolyzed by esterases in cells to the parent Calcein, a pH-independent, cytosolic fluorescent marker, which remains inside of the cell. The time-dependent recovery of fluorescence in the presence of a given chelator provided a continuous measure for the capacity of the chelator to access the iron/CAL-containing compartment.
Calcein uptake and intracellular fluorescence were determined as follows: K562 erythroleukemia cells were preloaded with calcein (CAL) by incubation with […] of the fluorescent probe CAL-AM for 5 min at 37° C., washed and incubated in HBS medium containing anti-CAL antibodies in order to quench traces of extracellular-associated fluorescence. The suspensions were placed in 96-well plates (100 μl final volume) and analyzed as described above while maintaining the system at 37° C. At the indicated time, the indicated chelator was added so as to reach a final 5 μM concentration.
The values of half maximal time (sec) and fraction of fluorescence recovery were: […]

PC12 cells = test: Neuroprotection of PC12 cells against serum-deprivation induced apoptosis (MTT test); format: cell-based, rat; settings: for number of survival cells (cell viability, % of cells cultured with serum): 0.1 μM chelator, serum-free medium, 24 h, serum-free control 38%
Procedure: Rat PC12 cells, originated from rat pheochromocytoma, were grown at 37° C., in a humid 5% CO2, 95% air environment, in a growth medium containing Dulbecco's modified Eagle's Medium (DMEM, GIBCO, BRL) supplemented with glucose (1 mg/1 ml), 5% fetal calf serum, 10% horse serum, and 1% of a mixture of streptomycin/penicillin. On confluence, the culture was removed and the cells were detached by vigorous washing, centrifuged at 200 g for 5 min and resuspended in DMEM with full serum content. 0.5×10^4 cells/well were placed in microtiter plates (96 wells) precoated with collagen (10 μg/cm^2 were allowed to attach for 24 h before treatment).
Twenty-four hours after attachment of the PC12 cells as described in (g), the medium was replaced with DMEM containing 0.1% BSA. The test compounds were added to the cells after 1 h of incubation. After 24 h incubation, the cells were subjected to MTT test as previously described (Gassen et al., 1998). The absorption was determined in a Perkin-Elmer Dual Wavelength Eliza-Reader at λ=570/650 nm after automatic subtraction of background readings. The results are expressed as percentage of the untreated control.
PC12 cells were grown in serum-free medium alone or in serum-free medium with different concentration of the chelators VK-28, M32, HLA20 and Rasagiline. After 24 h incubation, the cells were subjected to MTT test.
Cell viability was expressed as a percentage of cells cultured in medium supplemented with serum, which served as the control group and was designated as 100%. […] Experimental data are shown as mean±SD (r=6).

rat brain MAO-B = target: T1, rat brain MAO-B (Rattus norvegicus, UniProt P19643); test: In vitro inhibition of rat brain MAO-B; format: biochemical; settings: read-out: inhibition of MAO-B
T1 construct: from tissue; host or cells: rat brain homogenate, 4500 g pellet
T1 sequence (P19643 1-520): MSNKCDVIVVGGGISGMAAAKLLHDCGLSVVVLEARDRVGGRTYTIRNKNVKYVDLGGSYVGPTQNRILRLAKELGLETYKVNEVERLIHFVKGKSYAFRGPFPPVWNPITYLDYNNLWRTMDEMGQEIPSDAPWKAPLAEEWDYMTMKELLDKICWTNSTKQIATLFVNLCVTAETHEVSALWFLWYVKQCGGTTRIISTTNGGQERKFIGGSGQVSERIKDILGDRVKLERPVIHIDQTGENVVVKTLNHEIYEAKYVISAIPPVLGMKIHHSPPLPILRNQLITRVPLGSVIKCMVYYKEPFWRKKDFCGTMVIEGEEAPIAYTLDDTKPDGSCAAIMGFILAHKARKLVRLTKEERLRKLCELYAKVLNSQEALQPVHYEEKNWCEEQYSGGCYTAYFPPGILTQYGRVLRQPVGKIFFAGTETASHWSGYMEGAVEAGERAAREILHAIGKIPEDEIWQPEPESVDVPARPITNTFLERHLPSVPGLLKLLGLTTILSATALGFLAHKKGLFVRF
Procedure: Rats were decapitated and the brains were quickly taken into a weighted ice-cold sucrose buffer (0.32 M), and their weights were determined. All subsequent procedures were performed at 0-4° C. The brains were homogenized in 0.25 M sucrose (one part tissue to 20 parts sucrose) in a Teflon glass homogenizer followed by the addition of sucrose buffer to a final concentration of 10% homogenate. The homogenates were centrifuged at 600 g for 15 min. The supernatant fraction was taken out and centrifuged at 4500 g for 30 min, the pellet was diluted in 0.32 M sucrose buffer and kept frozen for later assaying of MAO. Protein concentration was determined with Bradford reagent at 595 nm, using bovine serum albumin as a standard.
The test compound was added to a suitable dilution of the enzyme preparation (70 μg protein for MAO-B and 150 μg MAO-A assay) in 0.05 M phosphate buffer (pH 7.4). The mixture was incubated together with […], a specific inhibitor of MAO-B (for determination of MAO-A) or […] clorgylin, a specific inhibitor of MAO-A (for determination of MAO-B). Incubation was carried for 1 h at 37° C. before addition of ^14C-5-hydroxytryptamine binoxalate ([…]) for determination of MAO-A, or ^14C-phenylethylamine 100 µM for determination of MAO-B, and incubation continued for 30 min or 20 min, respectively. The reaction was stopped with 2 M ice-cold citric acid, and the metabolites were extracted and determined by liquid-scintillation counting in cpm units.
MAO-A and MAO-B activities were determined in rat brain homogenate in vitro following incubation with varying concentrations of the test compounds.
MAO-B activity in presence of the test compound was expressed as a percentage of that in control samples.

SMILES | EC50 ([1]; FIG. 1A) [µM] | EC50 ([1]; FIG. 1B) [µM] | half maximal time ([2]; FIG. 2A) [s] | half maximal time ([2]; FIG. 2B) [s] | number of survival cells (cell viability, % of cells cultured with serum) (PC12 cells) [%] | change in the protection against PC12 cell death induced by serum withdrawal (PC12 cells; 1 or 10 μM, compared with 0.1 μM) | inhibition at 100 µM (rat brain MAO-B) [%] | EC50 ([1]; FIG. 1C) [µM] | half maximal time ([2]; FIG. 2C) [s] | inhibitory activity against PC12 apoptosis induced by serum withdrawal (PC12 cells; 1 μM) | PC12 cell death in serum-free medium (toxicity) (PC12 cells; 10 μM) | inhibition at 100 µM (rat brain MAO-B; 100 μM) [%]
C#CCN1CCN(Cc2ccc(O)c3ncccc23)CC1 [HLA20, 5-(4-propargylpiperazin-1-ylmethyl)-8-hydroxyquinoline] | 3.5 | 5.4 | 175 | 390 | 65 | no significant change in the protection | 42 |  |  |  |  | 
OCCN1CCN(Cc2ccc(O)c3ncccc23)CC1 [VK-28, 5-[4-(2-hydroxyethyl)piperazin-1-ylmethyl]-8-hydroxyquinoline, reference compound] |  | 5.2 |  | 1250 | 80 |  |  | 3.2 | 1500 | good inhibitory activity | about 75% | 13.3
